Values joined by “and” are separate entries in the source; they are usually repeats but may differ in a detail not shown here. Equal entries are not always repeated.
Experiments:
Assay type in all cases: binding
ciprofloxacin antibody [1] = assay: Competitive ELISA for ciprofloxacin, different pre-reaction times (Embodiment 3); settings: re-reaction 1 min, 6 times
Method: (§1) Coat the ELISA plate with ciprofloxacin BSA conjugate, 1 μg/mL, 100 μL per well, blocking overnight at 4° C. Then block with 3% skimmed milk powder the following day. Prepare ciprofloxacin standards, 0 ppb, 1 ppb, 5 ppb, and 10 ppb with wash buffer.
The experiment is divided into 4 groups, each group takes 100 μL standard and 100 μL ciprofloxacin antibody, pre-incubate for 5 minutes, 10 minutes, 15 minutes and 20 minutes at 37° C. in the microplates respectively, then take 20 μL mixture solutions of antibody and standard and add to the ciprofloxacin ELISA plate, react for 1 minute, discard the liquid in the well, and pat dry on absorbent paper, then add 20 μL mixture solution and react for 1 minute, repeat for a total 6 times; wash the plate; add HRP labeled secondary antibody, react for 30 minutes at 37° C., wash the plate; add chromogenic agent 100 μL, react for 15 minutes at 37° C.; and finally add 50 μL termination solution, then measure the OD450.

Ractopamine antibody = assay: Competitive ELISA for Ractopamine (Embodiment 4)
Method: Preparing the Ractopamine microplate: Ractopamine coating antigen is added to the microplate, 100 μL/well, react for 2 hours at 37° C.; discard the liquid in the well; add blocking solution into the microplate, 100 μL/well, blocking for 1 hour at 37° C.; wash 3 times with wash buffer, leave for reservation. Prepare Ractopamine standards with concentrations of 0 ppb, 0.05 ppb, 0.15 ppb, 0.45 ppb, 1.35 ppb, 4.05 ppb respectively, with wash buffer.
Group 1: add 60 μL the standard and the Ractopamine antibody respectively into a new microplate, pre-react for 20 minutes; take 20 μL mixture solution of antibody and standard into the Ractopamine microplate, react for 1 minute, discard the liquid in the well, and pat dry on absorbent paper, then add 20 μL mixture solution and react for 1 minute, repeat for 5 times altogether, the pre-reaction product added into each well is 100 μL altogether; add HRP labeled secondary antibody, 100 μL per well, react for 45 minutes at 37° C.; wash the plate; add chromogenic agent 100 μL, react for 15 minutes at 37° C.; and finally add 50 μL termination solution, then measure the OD450.
Group 2: add 60 μL the standard and the Ractopamine antibody respectively into a new microplate, pre-react for 20 minutes; take 100 μL mixture solution of antibody and standard into the Ractopamine microplate, react for 30 minutes, discard the liquid in the well, and pat dry on absorbent paper; wash the plate; add HRP labeled secondary antibody, 100 μL per well, react for 45 minutes at 37° C., wash the plate; add chromogenic agent 100 μL, react for 15 minutes at 37° C.; and finally add 50 μL termination solution, then measure the OD450.

ciprofloxacin antibody [2] = assay: Competitive ELISA for ciprofloxacin, pre-reaction mode vs direct addition (Embodiment 1)
Method: Coat the ELISA plate with ciprofloxacin BSA conjugate, 1 μg/mL, 100 μL per well, blocking overnight at 4° C. Then block with 3% skimmed milk powder the following day. Prepare ciprofloxacin standards, 0 ppb, 1 ppb, 3 ppb, 9 ppb, 27 ppb, 81 ppb with the wash buffer (PBST).
The experiment is divided into two groups.
Group 1: pre-incubate 60 μL standards and 60 μL diluted ciprofloxacin antibody for 20 minutes at 37° C.; then take 100 μL reaction product and add to the ELISA plate covering with ciprofloxacin conjugate, react for 30 minutes at 37° C.; wash the plate, add HRP labeled secondary antibody, react for 30 minutes at 37° C., wash the plate; add chromogenic agent 100 μL, react for 15 minutes at 37° C.; and finally add 50 μL termination solution, then measure the OD450 with a microplate reader.
Group 2: add into the ELISA plate covering with ciprofloxacin conjugate with 50 μL standard and 50 μL antibody, in the sequence; react for 30 minutes at 37° C., wash the plate; add HRP labeled secondary antibody, react for 30 minutes at 37° C., wash the plate; add chromogenic agent 100 μL, react for 15 minutes at 37° C.; and finally add 50 μL termination solution, then measure OD450 with a microplate reader.

ciprofloxacin antibody [3] = assay: Competitive ELISA for ciprofloxacin, different re-reaction times (Embodiment 2)
Method: as §1
The experiment is divided into 5 groups, each group takes 100 μL standard and 100 μL ciprofloxacin antibody, pre-react for 20 minutes at 37° C. in the microplates, then add to ciprofloxacin ELISA plates:
Take 120 μL pre-reaction product to the ciprofloxacin ELISA plates from group 1, group 2, group 3 and group 4, and resume reacting for 30 minutes, 20 minutes, 10 minutes and 5 minutes respectively; wash the plate; add HRP labeled secondary antibody, react for 30 minutes at 37° C., wash the plate; add chromogenic agent 100 μL, react for 15 minutes at 37° C.; and finally add 50 μL termination solution, then measure the OD450.
Take 20 μL pre-reaction solution of antibody and standard from group 5 and add to the ciprofloxacin ELISA plate, react for 1 minute, discard the liquid in the well, and pat dry on absorbent paper, then add 20 μL mixture solution and react for 1 minute, repeat for 6 times altogether; wash the plate; add HRP labeled secondary antibody, react for 30 minutes at 37° C., wash the plate; add chromogenic agent 100 μL, react for 15 minutes at 37° C.; and finally add 50 μL termination solution, then measure the OD450.

chloramphenicol Mcab = assay: Competitive chemiluminescence immunoassay for chloramphenicol (Embodiment 5)
Method: • 1) Preparation of the chloramphenicol microplate: add chloramphenicol-BSA conjugate into the ELISA plate, 100 μL per well, overnight at 4° C., wash 3 times with a separation time of 3 minutes each, pat dry; add 5% skimmed milk powder 130 μL per well, block for 1 hour at 37° C., pat dry; wash 3 times with wash buffer, pat dry, leave for reservation. Prepare the chloramphenicol standard solutions with wash buffer: 0 ppb, 0.01 ppb, 0.03 ppb, 0.09 ppb, 0.27 ppb, 0.81 ppb. • 2) Mix the standard and the chloramphenicol Mcab in equal volumes, incubate for 20 minutes at 37° C.; then transfer the reaction product into chloramphenicol microplate; • Group 1: transfer the reaction product into ELISA plate, 20 μL/well, reaction for 1 minute at 37° C., discard liquid in the well, repeat the operation 5 times, and the pre-reaction product added to each well is total 100 μL; • Group 2: one-time transfer the whole 100 μL reaction product into the chloramphenicol microplate, reacting for 20 minute at 37° C.; • 3) Wash 3 times; add HRP labeled secondary antibody, 100 μL per well, react for 45 minutes at 37° C.; wash 5 times; after adding luminous substrate, chemiluminescence measuring instrument is applied to measure the luminous intensity.

In the case of O=C(O)c1cn(C2CC2)c2cc(N3CCNCC3)c(F)cc2c1=O [Ciprofloxacin], the OD450 (ciprofloxacin antibody [1]; ciprofloxacin 1 ppb, pre-incubation time 5 min) is reported as 0.337, the OD450 (ciprofloxacin antibody [1]; ciprofloxacin 1 ppb, pre-incubation time 10 min) is reported as 0.385 and 0.353 and the OD450 (ciprofloxacin antibody [1]; ciprofloxacin 1 ppb, pre-incubation time 15 min) is reported as 0.399 and 0.401. The OD450 (ciprofloxacin antibody [1]; ciprofloxacin 1 ppb, pre-incubation time 20 min) was 0.434 and 0.439, the OD450 (ciprofloxacin antibody [1]; ciprofloxacin 5 ppb, pre-incubation time 5 min) was 0.17 and 0.169 and the OD450 (ciprofloxacin antibody [1]; ciprofloxacin 5 ppb, pre-incubation time 10 min) was 0.175 and 0.187. For the same molecule, the OD450 (ciprofloxacin antibody [1]; ciprofloxacin 5 ppb, pre-incubation time 15 min) was 0.193 and 0.206, the OD450 (ciprofloxacin antibody [1]; ciprofloxacin 5 ppb, pre-incubation time 20 min) was 0.213 and 0.22 and the OD450 (ciprofloxacin antibody [1]; ciprofloxacin 10 ppb, pre-incubation time 5 min) was 0.15 and 0.133. The OD450 (ciprofloxacin antibody [1]; ciprofloxacin 10 ppb, pre-incubation time 10 min) was 0.152 and 0.136, the OD450 (ciprofloxacin antibody [1]; ciprofloxacin 10 ppb, pre-incubation time 15 min) was 0.153 and 0.149 and the OD450 (ciprofloxacin antibody [1]; ciprofloxacin 10 ppb, pre-incubation time 20 min) was 0.169 and 0.178. For the same molecule, the OD (Ractopamine antibody; Group 1 (20 min pre-reaction; 20 μL, 1 min, 5 times), concentration 0.05 ppb) was 1.175, the OD (Ractopamine antibody; Group 1 (20 min pre-reaction; 20 μL, 1 min, 5 times), concentration 0.15 ppb) was 0.803 and the OD (Ractopamine antibody; Group 1 (20 min pre-reaction; 20 μL, 1 min, 5 times), concentration 0.45 ppb) was 0.517. For the same molecule, the OD (Ractopamine antibody; Group 1 (20 min pre-reaction; 20 μL, 1 min, 5 times), concentration 1.35 ppb) was 0.324, the OD (Ractopamine antibody; Group 1 (20 min pre-reaction; 20 μL, 1 min, 5 times), concentration 4.05 ppb) was 0.183 and the OD (Ractopamine antibody; Group 2 (20 min pre-reaction; 100 μL, 30 min), concentration 0.05 ppb) was 1.584. It also gave an OD (Ractopamine antibody; Group 2 (20 min pre-reaction; 100 μL, 30 min), concentration 0.15 ppb) of 1.391, an OD (Ractopamine antibody; Group 2 (20 min pre-reaction; 100 μL, 30 min), concentration 0.45 ppb) of 1.003 and an OD (Ractopamine antibody; Group 2 (20 min pre-reaction; 100 μL, 30 min), concentration 1.35 ppb) of 0.602. It also gave an OD (Ractopamine antibody; Group 2 (20 min pre-reaction; 100 μL, 30 min), concentration 4.05 ppb) of 0.323, an OD450 (ciprofloxacin antibody [2]; Group 1 (20 min pre-incubation, then 30 min on plate), ciprofloxacin 1 ppb) of 1.975 and an OD450 (ciprofloxacin antibody [2]; Group 1 (20 min pre-incubation, then 30 min on plate), ciprofloxacin 3 ppb) of 1.632. For the same molecule, the OD450 (ciprofloxacin antibody [2]; Group 1 (20 min pre-incubation, then 30 min on plate), ciprofloxacin 9 ppb) was 1.448, the OD450 (ciprofloxacin antibody [2]; Group 1 (20 min pre-incubation, then 30 min on plate), ciprofloxacin 27 ppb) was 0.924 and the OD450 (ciprofloxacin antibody [2]; Group 1 (20 min pre-incubation, then 30 min on plate), ciprofloxacin 81 ppb) was 0.483. For the same molecule, the OD450 (ciprofloxacin antibody [2]; Group 2 (no pre-incubation, 30 min on plate), ciprofloxacin 1 ppb) was 1.904, the OD450 (ciprofloxacin antibody [2]; Group 2 (no pre-incubation, 30 min on plate), ciprofloxacin 3 ppb) was 1.643 and the OD450 (ciprofloxacin antibody [2]; Group 2 (no pre-incubation, 30 min on plate), ciprofloxacin 9 ppb) was 1.203. For the same molecule, the OD450 (ciprofloxacin antibody [2]; Group 2 (no pre-incubation, 30 min on plate), ciprofloxacin 27 ppb) was 0.952, the OD450 (ciprofloxacin antibody [2]; Group 2 (no pre-incubation, 30 min on plate), ciprofloxacin 81 ppb) was 0.523 and the OD450 (ciprofloxacin antibody [3]; ciprofloxacin 1 ppb, re-reaction 1 min, 6 times) was 0.863 and 0.813. For the same molecule, the OD450 (ciprofloxacin antibody [3]; ciprofloxacin 1 ppb, re-reaction time 5 min) was 1.21 and 1.189, the OD450 (ciprofloxacin antibody [3]; ciprofloxacin 1 ppb, re-reaction time 10 min) was 1.517 and 1.488 and the OD450 (ciprofloxacin antibody [3]; ciprofloxacin 1 ppb, re-reaction time 20 min) was 1.884 and 1.874. For the same molecule, the OD450 (ciprofloxacin antibody [3]; ciprofloxacin 1 ppb, re-reaction time 30 min) was 2.036 and 1.989, the OD450 (ciprofloxacin antibody [3]; ciprofloxacin 5 ppb, re-reaction 1 min, 6 times) was 0.412 and 0.372 and the OD450 (ciprofloxacin antibody [3]; ciprofloxacin 5 ppb, re-reaction time 5 min) was 0.706 and 0.664. For the same molecule, the OD450 (ciprofloxacin antibody [3]; ciprofloxacin 5 ppb, re-reaction time 10 min) was 1.003 and 0.984, the OD450 (ciprofloxacin antibody [3]; ciprofloxacin 5 ppb, re-reaction time 20 min) was 1.342 and 1.343 and the OD450 (ciprofloxacin antibody [3]; ciprofloxacin 5 ppb, re-reaction time 30 min) was 1.501 and 1.499. The OD450 (ciprofloxacin antibody [3]; ciprofloxacin 10 ppb, re-reaction 1 min, 6 times) was 0.302 and 0.332, the OD450 (ciprofloxacin antibody [3]; ciprofloxacin 10 ppb, re-reaction time 5 min) was 0.565 and 0.485 and the OD450 (ciprofloxacin antibody [3]; ciprofloxacin 10 ppb, re-reaction time 10 min) was 0.894 and 0.749. For the same molecule, the OD450 (ciprofloxacin antibody [3]; ciprofloxacin 10 ppb, re-reaction time 20 min) was 1.204 and 1.101, the OD450 (ciprofloxacin antibody [3]; ciprofloxacin 10 ppb, re-reaction time 30 min) was 1.269 and 1.182 and the IC50 (ciprofloxacin antibody [3]; competitive reaction with solid phase antigen in a short time after pre-reaction) was 1 ppb. For the same molecule, the IC50 (ciprofloxacin antibody [3]; long re-reaction time (before improvement)) was 10 ppb.
With O=C(N[C@H](CO)[C@H](O)c1ccc([N+](=O)[O-])cc1)C(Cl)Cl [chloramphenicol] the B/B0 (chloramphenicol Mcab; Group 1 (20 μL/well, 1 min, 5 times), chloramphenicol standard 0.01 ppb) was 0.88 and 0.89, the B/B0 (chloramphenicol Mcab; Group 1 (20 μL/well, 1 min, 5 times), chloramphenicol standard 0.03 ppb) was 0.66 and 0.64 and the B/B0 (chloramphenicol Mcab; Group 1 (20 μL/well, 1 min, 5 times), chloramphenicol standard 0.09 ppb) was 0.49 and 0.48. The B/B0 (chloramphenicol Mcab; Group 1 (20 μL/well, 1 min, 5 times), chloramphenicol standard 0.27 ppb) was 0.21 and 0.23, the B/B0 (chloramphenicol Mcab; Group 1 (20 μL/well, 1 min, 5 times), chloramphenicol standard 0.81 ppb) was 0.11 and 0.17 and the B/B0 (chloramphenicol Mcab; Group 2 (one-time 100 μL, 20 min), chloramphenicol standard 0.01 ppb) was 0.96 and 0.94. The B/B0 (chloramphenicol Mcab; Group 2 (one-time 100 μL, 20 min), chloramphenicol standard 0.03 ppb) was 0.88 and 0.89, the B/B0 (chloramphenicol Mcab; Group 2 (one-time 100 μL, 20 min), chloramphenicol standard 0.09 ppb) was 0.69 and the B/B0 (chloramphenicol Mcab; Group 2 (one-time 100 μL, 20 min), chloramphenicol standard 0.27 ppb) was 0.46 and 0.48. For the same molecule, the B/B0 (chloramphenicol Mcab; Group 2 (one-time 100 μL, 20 min), chloramphenicol standard 0.81 ppb) was 0.28 and 0.27.

From US20150148249A1, “METHOD OF IMPROVING THE SENSITIVITY OF COMPETITIVE IMMUNOASSAY” (SHENZHEN BIOEASY BIOTECHNOLOGY CO., LTD, priority 2012, published 2015)
